Test: Human HepG2 cell viability assay in 384 well format
Assay type: toxicity, cell-based
Design: dose 125 nL, time 70.5 hour; cytotoxicity at 70.5 h: concentration not given beside the values
Conditions: HepG2 cells, read-out: Inhibition

## CCn1c(-c2ccccc2)nn(CC(=O)NCCc2ccc(C)o2)c1=O
  cytotoxicity at 70.5 h: -0.836%

## COc1c(CNC2(c3noc(C)n3)CCC2)c(C)nn1C
  cytotoxicity at 70.5 h: -7.32%

## CNc1nc(N2CCC3(CCCNC3=O)C2)nc2c1CCC2 (configuration not stated)
  cytotoxicity at 70.5 h: -6.8%

## Cc1ncc2c(n1)CCCC2NC(=O)c1ccncc1 (configuration not stated)
  cytotoxicity at 70.5 h: 14.6%

## COc1ccc(Br)c(C(=O)N2CCCC(c3nc(C)no3)C2)c1 (configuration not stated)
  cytotoxicity at 70.5 h: -9.43%

## Cc1nnc(CN2CCN(C)C3(CCC(=O)N(CCO)CC3)C2)s1 (configuration not stated)
  cytotoxicity at 70.5 h: 3.3%

## CC(C)c1ccc(OCCC(=O)N(C)CC(N)=O)cc1
  cytotoxicity at 70.5 h: -12.9%

## CC(Cn1cccn1)C(=O)N1CCC(NS(C)(=O)=O)CC1 (configuration not stated)
  cytotoxicity at 70.5 h: -6.23%

## Cc1cc(C[C@@H]2COC[C@@H]2NC(=O)CN2CCCC2)on1
  cytotoxicity at 70.5 h: -0.566%

## CC(NCc1cccc(S(=O)(=O)N(C)C)c1)c1cccnc1 (configuration not stated)
  cytotoxicity at 70.5 h: -3.39%

## COc1cc(CNC(C)Cn2cccn2)cc2c1OCCO2 (configuration not stated)
  cytotoxicity at 70.5 h: -4.44%

## COc1cccc(OCC2CCCN(Cc3ncc[nH]3)C2)c1 (configuration not stated)
  cytotoxicity at 70.5 h: 33.4%

## Cn1cc(CN2CCC3(CC2)COC(COc2ccccn2)C3)cn1 (configuration not stated)
  cytotoxicity at 70.5 h: -14.7%

## OC(COCc1cccs1)Cn1cc(Cl)cn1 (configuration not stated)
  cytotoxicity at 70.5 h: -1.21%

## CC(C)c1ccc(C(=O)O)cc1S(=O)(=O)Nc1ccc(=O)n(C)c1
  cytotoxicity at 70.5 h: 2.84%

## FC1(F)CCN(Cc2ccncc2)CC12CCN(Cc1ccccn1)C2 (configuration not stated)
  cytotoxicity at 70.5 h: 14.3%

## COCCO[C@H]1CCN(C(=O)c2ccno2)[C@H]1Cc1cnn(C)c1
  cytotoxicity at 70.5 h: -0.314%

## c1cnnc(NCC2CN(CCn3cccn3)CCO2)c1 (configuration not stated)
  cytotoxicity at 70.5 h: -2.81%

## CCC(Nc1nc(C(C)C)nc2c1cnn2C)c1ccncc1 (configuration not stated)
  cytotoxicity at 70.5 h: -7.7%

## CC(=O)N1CCC(C(=O)NCc2ncc(-c3ccccc3)o2)CC1
  cytotoxicity at 70.5 h: -14.2%

## Cc1nn(C)c2c(=O)n(CC(=O)NCC3CCCO3)ccc12 (configuration not stated)
  cytotoxicity at 70.5 h: -4.99%

## CCOCc1nc2c(c(N(C)Cc3snnc3C)n1)CCNCC2
  cytotoxicity at 70.5 h: -9.47%

## Cc1nn(-c2ccccc2)c(C)c1CN1CCNCC1
  cytotoxicity at 70.5 h: 27.3%

## COCCN(Cc1ccoc1)S(=O)(=O)c1cccc(C(F)(F)F)c1
  cytotoxicity at 70.5 h: -13.5%

## CCC(O)CN(CC(=O)NC(=O)NC1CC1)c1ccccc1 (configuration not stated)
  cytotoxicity at 70.5 h: -6.3%

## COc1ccc2c(c1)nc1n2[C@@H](CNCc2ncccc2C)COC1
  cytotoxicity at 70.5 h: -5.69%

## Cc1cc(C)c2c(N3CCN(Cc4ncccc4C)CC3)ncnc2n1
  cytotoxicity at 70.5 h: -8.35%

## Cc1ccc(CNC(=O)Nc2nnc(C(C)C)s2)n1C
  cytotoxicity at 70.5 h: -4.19%

## O=C(O)c1cccnc1CN1CCCCC1CCc1cccc(O)c1 (configuration not stated)
  cytotoxicity at 70.5 h: 9.13%

## NC(=O)c1cccc2nc([C@H]3CCN(Cc4ccccc4F)C3)[nH]c12
  cytotoxicity at 70.5 h: -3.45%

## COCC(=O)N1CCc2[nH]nc(-c3ccc4c(c3)OCO4)c2C1
  cytotoxicity at 70.5 h: -3.34%

## O=C(c1ccn(COc2ccc(F)cc2)n1)N1CCCC1
  cytotoxicity at 70.5 h: -7.86%

## CS(=O)(=O)N1CCN(C(=O)c2cc(-c3ccc(Br)s3)n[nH]2)CC1
  cytotoxicity at 70.5 h: -10.2%

## c1cc(OCc2ccc3c(c2)OCO3)ccc1CNC1CC1
  cytotoxicity at 70.5 h: 48%

## Cc1cc(Oc2ccccc2)nc(C2CCN(CCO)CC2)n1
  cytotoxicity at 70.5 h: -6.09%

## c1ccc(Cn2cc(CNCC3CNc4ccnn4C3)cn2)cc1 (configuration not stated)
  cytotoxicity at 70.5 h: 32.4%

## CCc1nccn1-c1cncc(C2CCCN2)n1 (configuration not stated)
  cytotoxicity at 70.5 h: -8.79%

## O=C(O)[C@@H]1CN(C(=O)c2ccc(F)c(F)c2)C[C@H]1c1cccc(F)c1
  cytotoxicity at 70.5 h: -11.2%

## CCOc1ccc(NC(C)c2nnnn2-c2ccccc2)cc1CO (configuration not stated)
  cytotoxicity at 70.5 h: -66.6%

## Cc1cc(C(=O)NCCC2CCN(C)CC2)ccc1N(C)S(C)(=O)=O
  cytotoxicity at 70.5 h: -10.7%

## O=c1cc(Cn2ccnc2)nc2n1CCCN(S(=O)(=O)C1CC1)C2
  cytotoxicity at 70.5 h: -11.3%

## COC1CCCN(Cc2cc(O)c3cc(C)cc(C)c3n2)C1 (configuration not stated)
  cytotoxicity at 70.5 h: -2.68%

## CCS(=O)(=O)N1CCC2(CC1)CC(CC(=O)NC1CC1)c1ccccc12 (configuration not stated)
  cytotoxicity at 70.5 h: 17.6%

## Cc1cc(C)c2nc(C)c(C(=O)N3CCC(CCN(C)C)CC3)cc2c1
  cytotoxicity at 70.5 h: -1.81%

## CCC(NC(=O)C1CCN(S(=O)(=O)N(C)C)CC1)c1ccc(C)c(C)c1 (configuration not stated)
  cytotoxicity at 70.5 h: -5.81%

## CN(C)S(=O)(=O)N1CCC(OCCCc2ccccc2)C1 (configuration not stated)
  cytotoxicity at 70.5 h: -0.922%

## Cc1nc(N2CCCC2)ncc1C(=O)Nc1ccc(Br)cc1
  cytotoxicity at 70.5 h: -2.71%

## CC1C(=O)NCCN1CCOc1ccc(C#N)cc1 (configuration not stated)
  cytotoxicity at 70.5 h: -21.1%

## NC(=O)C1CCN(C(=O)NCCOc2ccc3c(c2)CCC3)CC1
  cytotoxicity at 70.5 h: -6.38%

## O=C(CCc1nc(Cl)n[nH]1)NC1CCCN(C2Cc3ccccc3C2)C1 (configuration not stated)
  cytotoxicity at 70.5 h: -9.23%

## Cc1noc(C)c1S(=O)(=O)N1CCC(n2cccn2)CC1
  cytotoxicity at 70.5 h: -5.3%

## Cc1nc(C(=O)N2CC[C@@]3(C[C@H](NS(C)(=O)=O)CCO3)C2)cs1
  cytotoxicity at 70.5 h: -7.15%

## O=C(CN1CCc2cncnc2C1)Nc1ccc(Cl)cn1
  cytotoxicity at 70.5 h: 6.59%

## COc1cccc(CNCc2ccc(F)cc2Cl)c1O
  cytotoxicity at 70.5 h: -1.41%

## CCc1ncc(C(=O)c2ccc(OC)cc2)n1C
  cytotoxicity at 70.5 h: 17.9%

## O=C(Cc1ccc2c(c1)CCC2)N1CCN(c2cnccn2)CC1
  cytotoxicity at 70.5 h: 2.45%

## Cc1cc(C(=O)N(C)C)nc(C2(C)CCCN2c2ccnc(C)n2)n1 (configuration not stated)
  cytotoxicity at 70.5 h: -6.87%

## NCC1(c2cccc(C(F)(F)F)c2)CCCC1
  cytotoxicity at 70.5 h: 15.4%

## CC1CN(C)CCN1C(=O)c1cnn(-c2ccc(Cl)cc2)c1 (configuration not stated)
  cytotoxicity at 70.5 h: 19.4%

## CC(C1CC1)N(CC(=O)NC(=O)NC1CC1)C1CC1 (configuration not stated)
  cytotoxicity at 70.5 h: -3.17%

## CCCS(=O)(=O)N1CCC2(CCC(=O)N(Cc3ccccc3)C2)CC1
  cytotoxicity at 70.5 h: -4.86%

## O=C1[C@H]2CC[C@H](CN(C3CSCCSC3)C2)N1Cc1cscn1
  cytotoxicity at 70.5 h: -7.49%

## CCOc1ccccc1N(C)C(=O)c1cscn1
  cytotoxicity at 70.5 h: 0.806%

## CCn1cc(NC(=O)NCCN2CCc3ccccc3C2)cn1
  cytotoxicity at 70.5 h: 4.14%

## COc1ccc(Oc2ncccc2C(F)(F)F)cc1CN1CCCC1
  cytotoxicity at 70.5 h: 14%

## Cc1nn(-c2ccccc2)c(C)c1CNC(=O)NC1CC(=O)N(C)C1 (configuration not stated)
  cytotoxicity at 70.5 h: -1.18%

## O=C(c1ccc2c(c1)[nH]c(=O)n2C1CCCC1)N1CCCSCC1
  cytotoxicity at 70.5 h: -8.62%

## COc1ccc(CN2CC[C@@H](O)[C@@H]2Cc2ccccc2)cc1
  cytotoxicity at 70.5 h: 38.7%

## CN(Cc1ccc2c(c1)OCO2)Cc1nc(Cc2ccccc2)no1
  cytotoxicity at 70.5 h: -5.91%

## CC(c1ccccn1)N(C)Cc1cc2cc3c(cc2[nH]c1=O)OCO3 (configuration not stated)
  cytotoxicity at 70.5 h: 6.6%

## Cc1[nH]nc2ncc(C(=O)N3CCN(CC(C)O)CC3)cc12 (configuration not stated)
  cytotoxicity at 70.5 h: -5.99%

## CSCCC(C)(O)CNC(=O)c1ccsc1 (configuration not stated)
  cytotoxicity at 70.5 h: 0.568%

## CCCC(=O)NCc1cc(Br)c(OC)c(OC)c1
  cytotoxicity at 70.5 h: -6.96%

## CCCS(=O)(=O)N1CCC(Nc2c(F)cc(C#N)cc2F)CC1
  cytotoxicity at 70.5 h: -2.66%

## CS(=O)(=O)CCCN1CCN(C(C#N)c2ccccc2)CC1 (configuration not stated)
  cytotoxicity at 70.5 h: 0.393%

## CN(C)C(=O)CCC(=O)N1CCC2(CC1)COC2
  cytotoxicity at 70.5 h: 12.8%

## COc1ccc(C(=O)NCC(=O)N(Cc2ccsc2)C2CC2)cc1OC
  cytotoxicity at 70.5 h: 30.2%

## COc1ccc(OC)c2c(C)cc(N(C)Cc3cc(C)on3)nc12
  cytotoxicity at 70.5 h: 23.1%

## Cc1cnc(C(=O)N2C[C@H]3CN(Cc4cccc(F)c4)C(=O)[C@H]3C2)cn1
  cytotoxicity at 70.5 h: 10.5%

## Cc1cccc2c(=O)n(C(C)Cc3cccnc3)cnc12 (configuration not stated)
  cytotoxicity at 70.5 h: -8.06%

## COc1ncccc1NC(=O)C1CC(=O)N(Cc2ccccn2)C1 (configuration not stated)
  cytotoxicity at 70.5 h: 0.729%

## Cc1ccc2nc(NCCCN3CCCCCC3=O)n(C)c(=O)c2c1
  cytotoxicity at 70.5 h: -20%

From ChEMBL document CHEMBL3507680, “University of Dundee, Gates Library screen for HepG2 cell viability”
